According to patent US11396496B2, “1,4-substituted isoquinoline inhibitors of KEAP1/NRF2 protein-protein interaction” (THE BOARD OF TRUSTEES OF THE UNIVERSITY OF ILLINOIS, priority 2018, dated 2022):

How the values were obtained:
Kelch domain of KEAP1 = Kelch domain of KEAP1 (Homo sapiens (Human), UniProt Q14145); test: Fluorescence anisotropy assay of KEAP1-NRF2 interaction inhibition; assay type: binding; conditions: for binding affinity (in words): qualitative statement on the fluorescence anisotropy results
Method: The IC50 of the compounds for inhibiting the interaction of a fluorescent NRF2 peptide and the Kelch domain of KEAP1 was determined using fluorescence anisotropy. See Inoyama et al., J. Biomol.
Test compounds' ability to inhibit the KEAP1-NRF2 interaction were assayed using the Kelch domain of KEAP1 and a fluorescein-labeled 9-mer peptide containing the ETGE motif of the Neh2 domain of NRF2. The experiments were performed in triplicate, and sigmoidal concentration-response curves were fitted to the data using Graphpad Prism 6.1 software.

[1] = Log D7.4 (1-octanol / HEPES buffer pH 7.4); assay type: physicochemical; conditions: HEPES buffer pH 7.4 / 1-octanol, mean of triplicate; for logD at 1 h: 1-octanol / HEPES buffer
Method: This solution was diluted to nine known concentration solutions (1200, 800, 400, 120, 80, 40, 12, 8, and 4 μM) in MeCN. Each solution was analyzed by HPLC, and a calibration curve was plotted using the peak areas from the standard concentrations. 20 μL of the 10 mM DMSO stock solution of each compound was partitioned between […] of buffer (200 mM HEPES, 150 mM NaCl, pH 7.4) and […] of 1-octanol. The mixture was mixed for 1 h. Each layer was injected separately onto a Shimadzu LC-20AB HPLC system (Solvent system: gradient from 15% MeCN/85% H2O to 95% MeCN/5% H2O (+0.1% formic acid) over 13 min; Column, Shimadzu C18, […], 50×4.6 mm; UV, 254 nm). The equilibrium solubility in the buffer layer and the 1-octanol layer of test compounds was determined by quantifying the concentration of test solutions against the calibration curve. Experiments were run in triplicate, and results were tabulated and reported as mean. […] Thus, including an electron withdrawing group at position R^4 results in improved pharmacokinetics, such as an improved ability to cross cell membranes.

[2] = Microsomal stability study; assay type: in vitro ADME; conditions: human liver microsomes in buffer, 20 min
Source text: LC-MS grade acetonitrile (MeCN), methanol (MeOH), formic acid, and biology grade DMSO were purchased from Fisher Scientific (Pittsburgh, Pa.). LC-MS grade water was generated using a Barnstead Nanopure Diamond water system (Thermo Scientific, Pittsburgh, Pa.). All other reagents, if not specified, were purchased from Sigma-Aldrich (Saint Louis, Mo.). Pooled human liver microsomes and mouse liver microsomes were purchased from Sekisui XenoTech (Kansas City, Kans.). Preparation of Standard. The initial stock solutions of test compounds were prepared in DMSO at 10 mM, and then diluted with MeOH to 200 μM before use. All stock solutions were stored at −20° C. Liver microsomes were aliquoted upon arrival and stored at −80° C. Samples were analyzed on a Shimadzu 8040 triple-quadrupole mass spectrometer (Shimadzu, Addison, Ill.) equipped with electrospray ion source and Shimadzu Nexera XR UHPLC system. Mobile phase A contained water with 0.025% (v/v) FA, and mobile phase B consisted of MeCN with 0.1% (v/v) FA. Five microliters of sample was injected. Study compounds were eluted on a Kinetex C18 column (3.0×50 mm, 2.6 μm; Phenomenex, Torrance, Calif.) at 500 μL/min using a gradient program: mobile phase B started and maintained at 15% for 1 min, then increased to 95% in 4 min. Nebulizing gas flow and drying gas flow were set to 2 and 15 L/min. DL temperature, heat block temperature, and ion spray voltage were maintained at 300° C., 450° C. and 4500 V, respectively.

[3] = test system: NADPH quinone oxidoreductase (NQO1); test: NRF2 target gene activation: NQO1 protein levels by Western Blot in HaCaT keratinocytes; assay type: cell-based, human; conditions: HaCaT cells, 10 μM compound, 6 h
Method: (§1) Molecules that block the degradatior of NRF2 serve as NRF2 activators. This has the effect of stabilizing NRF2 protein levels and upregulating target gene levels, such as NQO1. […] CDDO is a positive control compound that activates NRF2 through an electrophilic mechanism. […] HaCat Cells were treated with 10 μM compound unless otherwise indicated.
(§2) Spontaneously immortalized human keratinocytes (HaCaT cell line) were grown in Dubecco's modified Eagle's medium (DMEM) with 10% fetal bovine serum and 1% antibiotics. […] Cells were lysed in a 20 mM Tris (pH 7.5) buffer containing 150 mM NaCl, 1 mM EDTA, 1 mM EGTA, 1% Triton X-100, 2.5 mM sodium pyrophosphate, 1 mM Na3VO4, 5 mM β-glycerophosphate, and 1 μg/mL leupeptin. Equal amount of protein (˜40 μg) was separated on a 10% SDS-PAGE, blotted on the membrane, and probed with antiNRF2, or anti-NQO1 antibody. […] CDDO is a positive control compound that activates NRF2 through an electrophilic mechanism.

NRF2 = NRF2 stabilization by Western Blot in HaCaT keratinocytes; assay type: cell-based, human; conditions: HaCaT cells, 10 μM compound, 6 h, relative to vehicle (DMSO) control
Method: as §1, §2

[4] = fluorescent NRF2 peptide and Kelch domain of KEAP1, fluorescence anisotropy

Kelch domain of KEAP1, sequence (Q14145 321-609): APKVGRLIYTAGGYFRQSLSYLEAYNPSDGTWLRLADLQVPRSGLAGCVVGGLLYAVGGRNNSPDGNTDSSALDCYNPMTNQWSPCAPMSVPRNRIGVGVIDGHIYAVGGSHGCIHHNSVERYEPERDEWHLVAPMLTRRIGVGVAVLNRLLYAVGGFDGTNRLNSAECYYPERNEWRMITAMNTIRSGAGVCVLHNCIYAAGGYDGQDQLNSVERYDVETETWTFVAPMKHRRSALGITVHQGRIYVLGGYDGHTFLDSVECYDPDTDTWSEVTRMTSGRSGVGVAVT

Compound | IC50 (Kelch domain of KEAP1; Table C, unit inferred) | IC50 (Kelch domain of KEAP1; [4]) | also measured
COc1ccc(S(=O)(=O)N(C)c2cnc(N(CC(=O)O)S(=O)(=O)c3ccc(OC)cc3)c3ccccc23)cc1 [Compound A8, N-(4-((4-methoxy-N-methylphenyl)sulfonamido)isoquinolin-1-yl)-N-((4-methoxyphenyl)sulfonyl)glycine] | – | 1.1 µM | logD at 1 h [1]: 0; metabolic stability [2]: degraded substantially; binding affinity (in words) (Kelch domain of KEAP1): significantly diminished the binding affinity
O=C(O)CN(c1cnc(N(CC(=O)O)S(=O)(=O)c2ccc(O)cc2)c2ccccc12)S(=O)(=O)c1ccc(O)cc1 [Compound A4, 2,2′-(isoquinoline-1,4-diylbis(((4-hydroxyphenyl)sulfonyl)azanediyl))diacetic acid] | – | 0.53 µM | binding affinity (in words) (Kelch domain of KEAP1): high binding affinities
COc1ccc(S(=O)(=O)N(CC(F)(F)F)c2cnc(N(CC(=O)O)S(=O)(=O)c3ccc(OC)cc3)c3ccccc23)cc1 [Compound B0, N-(4-((4-methoxy-N-(2,2,2-trifluoroethyl)phenyl)sulfonamido)isoquinolin-1-yl)-N-((4-methoxyphenyl)sulfonyl)glycine] | – | – | logD at 1 h [1]: 0.5
[2H]C([2H])([2H])N(c1cnc(N(CC(=O)O)S(=O)(=O)c2ccc(OC)cc2)c2ccccc12)S(=O)(=O)c1ccc(OC)cc1 [Compound A9, N-(4-((4-methoxy-N-(methyl-d3)phenyl)sulfonamido)isoquinolin-1-yl)-N-((4-methoxyphenyl)sulfonyl)glycine] | – | 1.23 µM | metabolic stability [2]: degraded substantially; binding affinity (in words) (Kelch domain of KEAP1): significantly diminished the binding affinity
COc1ccc(S(=O)(=O)N(CC(=O)O)c2cnc(N(CC(=O)O)S(=O)(=O)c3ccc(OC)cc3)c3ccccc23)cc1 [Compound A1, 2,2′-(isoquinoline-1,4-diylbis(((4-methoxyphenyl)sulfonyl)azanediyl))diacetic acid] | – | – | logD [1]: −1.5
COc1ccc(S(=O)(=O)Nc2cnc(N(CC(=O)O)S(=O)(=O)c3ccc(OC)cc3)c3ccccc23)cc1 [Compound A6, N-(4-((4-methoxyphenyl)sulfonamido)isoquinolin-1-yl)-N-((4-methoxyphenyl)sulfonyl)glycine] | – | 0.212 µM | levels of NQO1 [3]: increase the levels of NQO1; logD [1]: −1.6; stabilization of NRF2 expression (NRF2): stabilize NRF2 expression; metabolic stability [2]: degraded substantially
COc1ccc(S(=O)(=O)N(C)c2ncc(N(CC(=O)O)S(=O)(=O)c3ccc(OC)cc3)c3ccccc23)cc1 [Compound A3, N-(1-((4-methoxy-N-methylphenyl)sulfonamido)isoquinolin-4-yl)-N-((4-methoxyphenyl)sulfonyl)glycine] | – | 2 µM | logD at 1 h [1]: 0; metabolic stability [2]: significantly more metabolically stable
O=C(O)CN(c1cnc(N(CC(=O)O)S(=O)(=O)c2ccc(F)cc2)c2ccccc12)S(=O)(=O)c1ccc(F)cc1 [Compound A5, 2,2′-(isoquinoline-1,4-diylbis(((4-fluorophenyl)sulfonyl)azanediyl))diacetic acid] | – | 0.35 µM | binding affinity (in words) (Kelch domain of KEAP1): high binding affinities
COc1ccc(S(=O)(=O)Nc2ncc(N(CC(=O)O)S(=O)(=O)c3ccc(OC)cc3)c3ccccc23)cc1 [Compound A2, N-(1-((4-methoxyphenyl)sulfonamido)isoquinolin-4-yl)-N-((4-methoxyphenyl)sulfonyl)glycine] | – | 1.2 µM | logD at 1 h [1]: -0.5

Second part, led by results:

IC50 (Kelch domain of KEAP1; Table C, unit inferred) | IC50 (Kelch domain of KEAP1; [4]) | Compound | also measured
> 25 µM | > 25 µM | COc1ccc(S(=O)(=O)Nc2cnc(N3CC[C@@H](c4ccccc4)C3)c3ccccc23)cc1 [Compound C7, (S)-4-methoxy-N-(1-(3-phenylpyrrolidin-1-yl)isoquinolin-4-yl)benzenesulfonamide] | –
5 µM | 5 µM | COc1ccc(S(=O)(=O)Nc2cnc(N3CCC[C@H]3C(=O)O)c3ccccc23)cc1 [Compound C6, (4-((4-methoxyphenyl)sulfonamido)isoquinolin-1-yl)-L-proline] | –
9.3 µM | 9.3 µM | COc1ccc(S(=O)(=O)Nc2ccc(/C=C/C(=O)O)c3ccccc23)cc1 [Compound C9, (E)-3-(4-((4-methoxyphenyl)sulfonamido)naphthalen-1-yl)acrylic acid] | –
> 25 µM | > 25 µM | COc1ccc(S(=O)(=O)Nc2cnc(N3CCC[C@@H]3C(=O)O)c3ccccc23)cc1 [Compound C5, (4-((4-methoxyphenyl)sulfonamido)isoquinolin-1-yl)-D-proline] | –
> 25 µM | > 25 µM | COc1ccc(CCc2ccc(NS(=O)(=O)c3ccc(OC)cc3)c3ccccc23)cc1 [Compound C13, 4-methoxy-N-(4-(4-methoxyphenethyl)naphthalen-1-yl)benzenesulfonamide] | –
6 µM | 6 µM | COc1ccc(S(=O)(=O)Nc2ccc(CCC(=O)O)c3ccccc23)cc1 [Compound C11, 3-(4-((4-methoxyphenyl)sulfonamido)naphthalen-1-yl)propanoic acid] | –
> 25 µM | > 25 µM | COc1ccc(S(=O)(=O)Nc2cnc(N3CC[C@H](c4ccccc4)C3)c3ccccc23)cc1 [Compound C8, (R)-4-methoxy-N-(1-(3-phenylpyrrolidin-1-yl)isoquinolin-4-yl)benzenesulfonamide] | –
